From article PMC5218480 (PLoS ONE, 2017)

Tested on: MV-4-11 cells
Experiment: Gene expression microarray analysis (Affymetrix PrimeView) and GSEA
Type: cell-based, human
Design: RFU PODN (11730768_x_at) / Fold change /veh PODN (11730768_x_at) / RFU LINC00158 (11744669_a_at) / Fold change /veh LINC00158 (11744669_a_at) / RFU DUSP10 (11751237_a_at) / Fold change /veh DUSP10 (11751237_a_at) / RFU ID3 (11757404_x_at) / Fold change /veh ID3 (11757404_x_at) / RFU PLEKHG5 (11737974_s_at) / Fold change /veh PLEKHG5 (11737974_s_at) / RFU LRRC4B (11730491_at) / Fold change /veh LRRC4B (11730491_at) / RFU GIMAP4 (11747438_a_at) / Fold change /veh GIMAP4 (11747438_a_at) / RFU KRT8 (11758183_x_at) / Fold change /veh KRT8 (11758183_x_at) / RFU CNN1 (11734310_a_at) / Fold change /veh CNN1 (11734310_a_at) / RFU VPS37D (11726825_at) / Fold change /veh VPS37D (11726825_at) / RFU C10orf10 (11716522_x_at) / Fold change /veh C10orf10 (11716522_x_at) / RFU KIR2DL2 /// KIR2DL4 /// KIR2DL5A /// KIR2DL5B /// KIR2DS1 /// KIR2DS2 /// KIR2DS3 /// KIR2DS4 /// KIR3DL3 /// KIR3DL3 /// KIR3DS1 (11738374_at) / Fold change /veh KIR2DL2 /// KIR2DL4 /// KIR2DL5A /// KIR2DL5B /// KIR2DS1 /// KIR2DS2 /// KIR2DS3 /// KIR2DS4 /// KIR3DL3 /// KIR3DL3 /// KIR3DS1 (11738374_at) / RFU C1QL1 (11718748_at) / Fold change /veh C1QL1 (11718748_at) / RFU TMPRSS4 (11747572_a_at) / Fold change /veh TMPRSS4 (11747572_a_at) / RFU HAMP (11756126_x_at) / Fold change /veh HAMP (11756126_x_at) / RFU RNFT2 (11725882_a_at) / Fold change /veh RNFT2 (11725882_a_at) / RFU NR4A2 (11747474_a_at) / Fold change /veh NR4A2 (11747474_a_at) / RFU ABCC12 (11746883_a_at) / Fold change /veh ABCC12 (11746883_a_at) / RFU TMEM136 (11760407_x_at) / Fold change /veh TMEM136 (11760407_x_at) / RFU CLDN22 /// WWC2 (11732394_at) / Fold change /veh CLDN22 /// WWC2 (11732394_at) / RFU HLA-DPB1 (11760878_x_at) / Fold change /veh HLA-DPB1 (11760878_x_at) / RFU SPINT1 (11716480_a_at) / Fold change /veh SPINT1 (11716480_a_at) / RFU GAP43 (11754022_s_at) / Fold change /veh GAP43 (11754022_s_at) / RFU A4GNT (11735810_at) / Fold change /veh A4GNT (11735810_at) / RFU PRB3 (11715151_x_at) / Fold change /veh PRB3 (11715151_x_at) / RFU TUBB4B (11761932_at) / Fold change /veh TUBB4B (11761932_at) / RFU CAPN14 (11732068_a_at) / Fold change /veh CAPN14 (11732068_a_at) / RFU TMCC2 (11721928_a_at) / Fold change /veh TMCC2 (11721928_a_at) / RFU IRGQ (11745062_a_at) / Fold change /veh IRGQ (11745062_a_at) / RFU FAM174B (11720279_a_at) / Fold change /veh FAM174B (11720279_a_at) / RFU TMPRSS4 (11748680_a_at) / Fold change /veh TMPRSS4 (11748680_a_at) / RFU FAM212B (11763350_a_at) / Fold change /veh FAM212B (11763350_a_at) / RFU PLEKHG5 (11743358_a_at) / Fold change /veh PLEKHG5 (11743358_a_at) / RFU ZSCAN30 (11745921_a_at) / Fold change /veh ZSCAN30 (11745921_a_at) / RFU CMKLR1 (11741424_a_at) / Fold change /veh CMKLR1 (11741424_a_at) / RFU LOC101060620 /// MAPK8IP1 (11723275_at) / Fold change /veh LOC101060620 /// MAPK8IP1 (11723275_at) / RFU SPTSSB (11747773_x_at) / Fold change /veh SPTSSB (11747773_x_at) / RFU PRSS12 (11739890_at) / Fold change /veh PRSS12 (11739890_at) / RFU BIN1 (11741810_x_at) / Fold change /veh BIN1 (11741810_x_at) / RFU WNT11 (11732464_a_at) / Fold change /veh WNT11 (11732464_a_at) / RFU C10orf10 (11716521_a_at) / Fold change /veh C10orf10 (11716521_a_at) / RFU C5orf56 (11738089_at) / Fold change /veh C5orf56 (11738089_at) / RFU CYB561 (11721691_x_at) / Fold change /veh CYB561 (11721691_x_at) / RFU ANKRD19P (11752326_a_at) / Fold change /veh ANKRD19P (11752326_a_at) / RFU OR2T12 /// OR2T33 /// OR2T8 (11738714_s_at) / Fold change /veh OR2T12 /// OR2T33 /// OR2T8 (11738714_s_at) / RFU VCAN (11748164_a_at) / Fold change /veh VCAN (11748164_a_at) / RFU JSRP1 (11732532_at) / Fold change /veh JSRP1 (11732532_at) / RFU KRTAP10-11 (11738290_x_at) / Fold change /veh KRTAP10-11 (11738290_x_at) / RFU MYO3A (11730013_a_at) / Fold change /veh MYO3A (11730013_a_at) / RFU EBF3 (11725865_a_at) / Fold change /veh EBF3 (11725865_a_at) / RFU CAMK2N1 (11719241_x_at) / Fold change /veh CAMK2N1 (11719241_x_at) / RFU C5orf56 (11738088_a_at) / Fold change /veh C5orf56 (11738088_a_at) / RFU OLFML3 (11715873_a_at) / Fold change /veh OLFML3 (11715873_a_at) / RFU LOC100653217 /// NTM (11731650_a_at) / Fold change /veh LOC100653217 /// NTM (11731650_a_at) / RFU MAPK11 (11762145_a_at) / Fold change /veh MAPK11 (11762145_a_at) / RFU FIZ1 (11724087_x_at) / Fold change /veh FIZ1 (11724087_x_at) / RFU OASL (11726364_x_at) / Fold change /veh OASL (11726364_x_at) / RFU SOX15 (11748057_x_at) / Fold change /veh SOX15 (11748057_x_at) / RFU CD79A (11719716_a_at) / Fold change /veh CD79A (11719716_a_at) / RFU HIST1H1D (11736915_at) / Fold change /veh HIST1H1D (11736915_at) / RFU CASKIN2 (11723855_a_at) / Fold change /veh CASKIN2 (11723855_a_at) / RFU LOC730098 (11760151_x_at) / Fold change /veh LOC730098 (11760151_x_at) / RFU OR4N2 (11742367_at) / Fold change /veh OR4N2 (11742367_at) / RFU PRRT2 (11749266_a_at) / Fold change /veh PRRT2 (11749266_a_at) / RFU SNX32 (11753110_a_at) / Fold change /veh SNX32 (11753110_a_at) / RFU CDHR5 (11726645_a_at) / Fold change /veh CDHR5 (11726645_a_at) / RFU RCAN1 (11760418_a_at) / Fold change /veh RCAN1 (11760418_a_at) / RFU FAM167A (11723789_a_at) / Fold change /veh FAM167A (11723789_a_at) / RFU FAM26E (11764081_at) / Fold change /veh FAM26E (11764081_at) / RFU ISYNA1 (11749810_s_at) / Fold change /veh ISYNA1 (11749810_s_at) / RFU ACY1 (11761880_at) / Fold change /veh ACY1 (11761880_at) / RFU 11764098_at / Fold change /veh 11764098_at / RFU SAMD14 (11745864_x_at) / Fold change /veh SAMD14 (11745864_x_at) / RFU NPB (11741838_a_at) / Fold change /veh NPB (11741838_a_at) / RFU TMPRSS6 (11731388_a_at) / Fold change /veh TMPRSS6 (11731388_a_at) / RFU KRTAP10-2 (11738614_at) / Fold change /veh KRTAP10-2 (11738614_at) / RFU ARHGAP8 /// PRR5-ARHGAP8 (11727945_x_at) / Fold change /veh ARHGAP8 /// PRR5-ARHGAP8 (11727945_x_at) / RFU KRTAP5-7 /// NADSYN1 (11734609_at) / Fold change /veh KRTAP5-7 /// NADSYN1 (11734609_at) / RFU RASL12 (11751679_a_at) / Fold change /veh RASL12 (11751679_a_at) / RFU CDKN2B (11736163_a_at) / Fold change /veh CDKN2B (11736163_a_at) / RFU PRF1 (11729649_at) / Fold change /veh PRF1 (11729649_at) / RFU, ZNF638 /// ZNF638-IT1 / Fold change vs veh, ZNF638 /// ZNF638-IT1 / RFU, PANK3 / Fold change vs veh, PANK3 / RFU, SH3YL1 / Fold change vs veh, SH3YL1 / RFU, ZEB2 / Fold change vs veh, ZEB2 / RFU, NRIP1 / Fold change vs veh, NRIP1 / RFU, PTTG1IP / Fold change vs veh, PTTG1IP / RFU, CAPN2 / Fold change vs veh, CAPN2 / RFU, MED14 / Fold change vs veh, MED14 / RFU, SNORA58 / Fold change vs veh, SNORA58 / RFU, C1orf63 / Fold change vs veh, C1orf63 / RFU, LRRFIP1 / Fold change vs veh, LRRFIP1 / RFU, NDUFAF7 / Fold change vs veh, NDUFAF7 / RFU, SLC12A2 / Fold change vs veh, SLC12A2 / RFU, IBTK / Fold change vs veh, IBTK / RFU, ESF1 / Fold change vs veh, ESF1 / Fold change vs veh, TMEM50B / RFU, TAOK1 / Fold change vs veh, TAOK1 / RFU, ACBD3 / Fold change vs veh, ACBD3 / RFU, TMA16 / Fold change vs veh, TMA16 / RFU, RWDD3 / Fold change vs veh, RWDD3 / RFU, BCAT1 / Fold change vs veh, BCAT1 / RFU, EDEM3 / Fold change vs veh, EDEM3 / RFU, TMEM33 / Fold change vs veh, TMEM33 / RFU, WDR75 / Fold change vs veh, WDR75 / RFU, AHCTF1 / Fold change vs veh, AHCTF1 / RFU, TFRC / Fold change vs veh, TFRC / RFU, ZDHHC17 / Fold change vs veh, ZDHHC17 / RFU, NOM1 / Fold change vs veh, NOM1 / RFU, ARL8B / Fold change vs veh, ARL8B / RFU, ZBTB11 / Fold change vs veh, ZBTB11 / RFU, TAMM41 / Fold change vs veh, TAMM41 / RFU, KIAA1704 /// LOC100996395 / Fold change vs veh, KIAA1704 /// LOC100996395 / RFU, ING1 / Fold change vs veh, ING1 / RFU, TRMT61B / Fold change vs veh, TRMT61B / RFU, FUBP3 / Fold change vs veh, FUBP3 / RFU, TP53 / Fold change vs veh, TP53 / RFU, TNKS2 / Fold change vs veh, TNKS2 / RFU, ZFP14 / Fold change vs veh, ZFP14 / RFU, ACTR2 / Fold change vs veh, ACTR2 / RFU, PPP3R1 / Fold change vs veh, PPP3R1 / RFU, PIK3R1 / Fold change vs veh, PIK3R1 / RFU, HNRNPA1 / Fold change vs veh, HNRNPA1 / RFU, RNF170 / Fold change vs veh, RNF170 / RFU, ZNF28 / Fold change vs veh, ZNF28 / RFU, RNGTT / Fold change vs veh, RNGTT / RFU, OGT / Fold change vs veh, OGT / RFU, BRD1 / Fold change vs veh, BRD1 / RFU, MARS / Fold change vs veh, MARS / RFU, ZNF655 / Fold change vs veh, ZNF655 / RFU, FAHD1 / Fold change vs veh, FAHD1 / RFU, BDP1 / Fold change vs veh, BDP1 / RFU, LRRCC1 / Fold change vs veh, LRRCC1 / RFU, ARID1A / Fold change vs veh, ARID1A / RFU, ZNF146 / Fold change vs veh, ZNF146 / RFU, ZNF330 / Fold change vs veh, ZNF330 / RFU, GPN3 / Fold change vs veh, GPN3 / RFU, C9orf123 / Fold change vs veh, C9orf123 / RFU, N4BP2L2 / Fold change vs veh, N4BP2L2 / RFU, ARFIP1 / Fold change vs veh, ARFIP1 / RFU, FAM179B / Fold change vs veh, FAM179B / RFU, BCL10 / Fold change vs veh, BCL10 / RFU, UHRF1BP1L / Fold change vs veh, UHRF1BP1L / RFU, BET1 / Fold change vs veh, BET1 / RFU, CNOT2 / Fold change vs veh, CNOT2 / RFU, ZNF268 / Fold change vs veh, ZNF268 / Fold change vs veh, ZNF507 / RFU, DGCR2 / Fold change vs veh, DGCR2 / RFU, WDSUB1 / Fold change vs veh, WDSUB1 / Fold change vs veh, HSP90B1 /// MIR3652 / RFU, ADSS / Fold change vs veh, ADSS / RFU, GK / Fold change vs veh, GK / RFU, ZNF148 / Fold change vs veh, ZNF148 / RFU, TAF9 / Fold change vs veh, TAF9 / RFU, SLC1A5 / Fold change vs veh, SLC1A5 / RFU, SLMO2 / Fold change vs veh, SLMO2 / RFU, ABCC4 / Fold change vs veh, ABCC4 / RFU, LOC101060439 /// RAP1B / Fold change vs veh, LOC101060439 /// RAP1B / RFU, RFX7 / Fold change vs veh, RFX7 / RFU, GTPBP10 / Fold change vs veh, GTPBP10 / RFU, CNEP1R1 / Fold change vs veh, CNEP1R1 / RFU, BIVM-ERCC5 /// ERCC5 / Fold change vs veh, BIVM-ERCC5 /// ERCC5 / RFU, ILF3 / Fold change vs veh, ILF3 / RFU 11762660_at / Fold change /veh 11762660_at / RFU VCAN (11757783_s_at) / Fold change /veh VCAN (11757783_s_at) / RFU DDX43 (11728927_at) / Fold change /veh DDX43 (11728927_at) / RFU KRT8 (11758188_x_at) / Fold change /veh KRT8 (11758188_x_at) / RFU NKD1 (11759106_at) / Fold change /veh NKD1 (11759106_at) / RFU SRD5A1 (11742802_a_at) / Fold change /veh SRD5A1 (11742802_a_at) / RFU TPSAB1 /// TPSB2 (11721975_s_at) / Fold change /veh TPSAB1 /// TPSB2 (11721975_s_at) / RFU GSTM3 (11746129_a_at) / Fold change /veh GSTM3 (11746129_a_at) / RFU IL23R (11737362_x_at) / Fold change /veh IL23R (11737362_x_at) / RFU TMEM51 (11727254_a_at) / Fold change /veh TMEM51 (11727254_a_at) / RFU PIWIL2 (11732686_x_at) / Fold change /veh PIWIL2 (11732686_x_at) / RFU ORM1 (11744905_x_at) / Fold change /veh ORM1 (11744905_x_at) / RFU CCDC152 (11743942_at) / Fold change /veh CCDC152 (11743942_at) / RFU ECM1 (11717891_a_at) / Fold change /veh ECM1 (11717891_a_at) / RFU IL23R (11748794_a_at) / Fold change /veh IL23R (11748794_a_at) / RFU TNFAIP8L3 (11732012_x_at) / Fold change /veh TNFAIP8L3 (11732012_x_at) / RFU MBOAT4 (11741988_at) / Fold change /veh MBOAT4 (11741988_at) / RFU 11764193_at / Fold change /veh 11764193_at / RFU TMEM53 (11763286_at) / Fold change /veh TMEM53 (11763286_at) / RFU MAGEB2 (11727129_at) / Fold change /veh MAGEB2 (11727129_at) / RFU TMEM200A (11744735_a_at) / Fold change /veh TMEM200A (11744735_a_at) / RFU CCDC152 (11751479_a_at) / Fold change /veh CCDC152 (11751479_a_at) / RFU FAM211A (11726209_a_at) / Fold change /veh FAM211A (11726209_a_at) / RFU RGS16 (11746705_a_at) / Fold change /veh RGS16 (11746705_a_at) / RFU VCAN (11755009_s_at) / Fold change /veh VCAN (11755009_s_at) / RFU RHOB (11743442_s_at) / Fold change /veh RHOB (11743442_s_at) / RFU RGS16 (11720943_a_at) / Fold change /veh RGS16 (11720943_a_at) / RFU RGS16 (11720944_at) / Fold change /veh RGS16 (11720944_at) / RFU, VPS4B / Fold change vs veh, VPS4B / RFU, CREB1 / Fold change vs veh, CREB1 / RFU, DNAJC13 / Fold change vs veh, DNAJC13 / RFU, GNAQ / Fold change vs veh, GNAQ / RFU, CDK5R1 / Fold change vs veh, CDK5R1 / RFU, ZRANB3 / Fold change vs veh, ZRANB3 / RFU, CUL4A / Fold change vs veh, CUL4A / RFU, CCNY / Fold change vs veh, CCNY / RFU, UFL1 / Fold change vs veh, UFL1 / RFU, COG3 / Fold change vs veh, COG3 / RFU, DIAPH2 / Fold change vs veh, DIAPH2 / RFU, SKA2 / Fold change vs veh, SKA2 / RFU, AFF3 / Fold change vs veh, AFF3 / RFU, LMF1 / Fold change vs veh, LMF1 / RFU, IPO11 / Fold change vs veh, IPO11 / RFU, DFFB / Fold change vs veh, DFFB / RFU, FOXP1 / Fold change vs veh, FOXP1 / RFU, CARD8 / Fold change vs veh, CARD8 / RFU, STRN3 / Fold change vs veh, STRN3 / RFU, ADK / Fold change vs veh, ADK / RFU, RASSF2 / Fold change vs veh, RASSF2 / RFU, WIPF1 / Fold change vs veh, WIPF1 / RFU, LARP1B / Fold change vs veh, LARP1B / RFU, RASA1 / Fold change vs veh, RASA1 / RFU, RB1 / Fold change vs veh, RB1 / RFU, PPFIA1 / Fold change vs veh, PPFIA1 / RFU, MAT2A / Fold change vs veh, MAT2A / RFU, CCT5 / Fold change vs veh, CCT5 / RFU, WDR92 / Fold change vs veh, WDR92 / RFU, CUX1 / Fold change vs veh, CUX1 / RFU, TTC7A / Fold change vs veh, TTC7A / RFU, TMEM135 / Fold change vs veh, TMEM135 / RFU, DEPTOR / Fold change vs veh, DEPTOR / RFU, CPM / Fold change vs veh, CPM / RFU, DNAJB6 / Fold change vs veh, DNAJB6 / RFU, CACNA2D3 / Fold change vs veh, CACNA2D3 / RFU, DTX4 / Fold change vs veh, DTX4 / RFU, TFCP2 / Fold change vs veh, TFCP2 / RFU, GMCL1 /// GMCL1P1 / Fold change vs veh, GMCL1 /// GMCL1P1 / RFU, AEBP2 / Fold change vs veh, AEBP2 / RFU, SNHG1 /// SNORD22 /// SNORD25 /// SNORD26 /// SNORD27 /// SNORD28 /// SNORD29 /// SNORD31 / Fold change vs veh, SNHG1 /// SNORD22 /// SNORD25 /// SNORD26 /// SNORD27 /// SNORD28 /// SNORD29 /// SNORD31 / Fold change (Aza/veh), C12orf56 (ProbeSet 11735607_a_at) / Fold change (ACY-1035/veh), C12orf56 (ProbeSet 11735607_a_at) / Fold change (Aza/veh), FGFR1OP (ProbeSet 11751329_s_at) / Fold change (ACY-1035/veh), FGFR1OP (ProbeSet 11751329_s_at) / Fold change (Aza/veh), VPS36 (ProbeSet 11739960_a_at) / Fold change (ACY-1035/veh), VPS36 (ProbeSet 11739960_a_at) / RFU SYPL1 (11715823_x_at) / Fold change /veh SYPL1 (11715823_x_at) / RFU IGFBP7 (11715501_s_at) / Fold change /veh IGFBP7 (11715501_s_at) / RFU REEP3 (11722064_at) / Fold change /veh REEP3 (11722064_at) / RFU IGLL1 (11728026_x_at) / Fold change /veh IGLL1 (11728026_x_at): dose or concentration left out as unconfirmed
Details: MV-4-11 cells, 48 hours

## Nc1ccc(-c2cccs2)cc1NC(=O)c1ccc2c(c1)cc(C1CC1)n2CCN1CCOCC1 [ACY-1035]
  Fold change /veh TMCC2 (11721928_a_at): 1.04
